The values that follow come from ChEMBL document CHEMBL5726876, “NHE3-binding compounds and methods for inhibiting phosphate transport” (2019).

The nature of experiment [1]: Cell-Based Assay of NHE3 Activity under Persistent Conditions: The ability of compounds to inhibit Rat NHE3-mediated Na+-dependent H+ antiport after application and washout was measured using a modification of the pH sensitive dye method described above. Opossum kidney (OK) cells were obtained from the ATCC and propagated per their instructions. The rat NHE3 gene was introduced into OK cells via electroporation, and cells were seeded into 96 well plates and grown overnight. Medium was aspirated from the wells, cells were washed twice with NaCl-HEPES buffer (100 mM NaCl, 50 mM HEPES, 10 mM glucose, 5 mM KCl, 2 mM CaCl2, 1 mM MgCl2, pH 7.4), then overlayed with NaCl-HEPES buffer containing 0-30 μM test compound.After a 60 min incubation, the test drug containing buffer was aspirated from the cells, cells were washed twice with NaCl-HEPES buffer without drug, then incubated for 30 min at room temperature with NH4Cl-HEPES buffer (20 mM NH4Cl, 80 mM NaCl, 50 mM HEPES, 5 mM KCl, 2 mM CaCl2, 1 mM MgCl2, pH 7.4) containing 5 uM BCECF-AM. Cells were washed twice with Ammonium free, Natfree HEPES (100 mM choline, 50 mM HEPES, 10 mM glucose, 5 mM KCl, 2 mM CaCl2, 1 mM MgCl2, pH 7.4) and incubated in the same buffer for 10 minutes at room temperature to lower intracellular pH. […] Initial rates were plotted as the average 2 or more replicates, and pIC50 values w.

A short description of experiment [2]: Cell-based activity under Prompt Conditions: Cell-based activity under Prompt Conditions. Rat or human NHE3-mediated Na+-dependent H+ antiport was measured using a modification of the pH sensitive dye method originally reported by Paradiso (PNAS USA. 81:7436-7440, 1984). Opossum kidney (OK) cells were obtained from the ATCC and propagated per their instructions. The rat NHE3 gene (GenBank M85300) or the human NHE3 gene (GenBank NM_004174.1) was introduced into OK cells via electroporation, and cells were seeded into 96 well plates and grown overnight. Medium was aspirated from the wells, cells were washed twice with NaCl-HEPES buffer (100 mM NaCl, 50 mM HEPES, 10 mM glucose, 5 mM KCl, 2 mM CaCl2, 1 mM MgCl2, pH 7.4), then incubated for 30 min at room temperature with NH4Cl-HEPES buffer (20 mM NH4Cl, 80 mM NaCl, 50 mM HEPES, 5 mM KCl, 2 mM CaCl2, 1 mM MgCl2, pH 7.4) containing 5 μM bis(acetoxymethyl) 3,3′-(3′,6′-bis(acetoxymethoxy)-5-((acetoxymethoxy)carbonyl)-3-oxo-3H-spiro[isobenzofuran-1,9′-xanthene]-2′,7′-diyl)dipropanoate (BCECF-AM).Cells were washed twice with Ammonium free, Na+-free HEPES (100 mM choline, 50 mM HEPES, 10 mM glucose, 5 mM KCl, 2 mM CaCl2, 1 mM MgCl2, pH 7.4) and incubated in the same buffer for 10 minutes at room temperature to lower intracellular pH. […] Initial rates were plotted as the average 2 or more replicates, and pIC50 values were estimated using GraphPad Prism.

The nature of experiment [3]: Cell-based assay of NaP2b activity: The rate of phosphate (Pi) uptake into cells was measured using a modification of a literature method (see Mohrmann et al. Am. J. Phys. 250(3 pt 1):G323-30, 1986). Briefly, HEK293 cells were transiently transfected with an expression clone encoding either rat or human NaP2b. The next day, transfected cells were treated with a pharmacological agent to minimize endogenous PiT-mediated phosphate transport activity, such that the only remaining sodium-dependent phosphate transport activity is that which was bestowed by introduction of the NaP2b gene. Cells were incubated with radioactive inorganic phosphate in the presence or absence of varying concentrations of test compound. After a short time, cells were washed, harvested, and the amount of hot phosphate taken up in the cells determined by liquid scintillation counting.HEK293 cells were obtained from the American Type Culture collection and propagated per their instructions. Expression clones for rat and human NaP2b (SLC34A2) were obtained from Open Biosystems (Catalog numbers MRN1768-9510282, and MHS1010-99823026, respectively). There are two putative splice variants of human NaP2b, designated as isoform a and isoform b (NCBI Reference Sequences: NP_006415.2 and NP_ 001171470.1, respectively). […] […].

Several values for one entry are separate records, joined by “and”; a condition that tells them apart may be missing. Identical values can stand only once.

`CN1Cc2c(Cl)cc(Cl)cc2[C@@H](c2cccc(S(=O)(=O)NCCOCCOCCNC(=O)NCCCCNC(=O)NCCOCCOCCNS(=O)(=O)c3cccc([C@H]4CN(C)Cc5c(Cl)cc(Cl)cc54)c3)c2)C1`: the IC50 was 2.51 µM in experiment [1]; < 10 µM and 0.0501 µM in experiment [2].
With `CN1Cc2c(Cl)cc(Cl)cc2[C@H](c2cccc(S(=O)(=O)NCCOCCOCCNC(=O)NCCCCNC(=O)NCCOCCOCCNS(=O)(=O)c3cccc([C@@H]4CN(C)Cc5c(Cl)cc(Cl)cc54)c3)c2)C1` [TENAPANOR], the IC50 in experiment [1] was 0.00398 µM; in experiment [3], less than 31.6 µM; in experiment [2], 0.00933 µM and 0.01 µM.
In the case of `CN(C)CC(=O)NC(CCC(=O)NCCOCCOCCNS(=O)(=O)c1cccc([C@@H]2CN(C)Cc3c(Cl)cc(Cl)cc32)c1)(CCC(=O)NCCOCCOCCNS(=O)(=O)c1cccc([C@@H]2CN(C)Cc3c(Cl)cc(Cl)cc32)c1)CCC(=O)NCCOCCOCCNS(=O)(=O)c1cccc([C@@H]2CN(C)Cc3c(Cl)cc(Cl)cc32)c1`, the half-inhibitory concentration (IC50) in experiment [2] is 0.0794 µM.
The same measure, in the same setting: then `CN1Cc2c(Cl)cc(Cl)cc2[C@H](c2cccc(S(=O)(=O)NCCOCCOCCOCCNC(=O)CCC(CCC(=O)NCCOCCOCCOCCNS(=O)(=O)c3cccc([C@@H]4CN(C)Cc5c(Cl)cc(Cl)cc54)c3)(CCC(=O)NCCOCCOCCOCCNS(=O)(=O)c3cccc([C@@H]4CN(C)Cc5c(Cl)cc(Cl)cc54)c3)NC(=O)c3ccc(-c4ccc(Cl)cc4)cc3)c2)C1`, with 5.01 µM.
